Experimental data from patent US20240140949A1, “ANTI-CANCER PHARMACEUTICAL COMPOSITION FOR TARGETING HEAT SHOCK PROTEIN 70, CONTAINING INDOLOQUINAZOLIDINE ALKALOID” (SEOUL NATIONAL UNIVERSITY R & DB FOUNDATION, priority 2021, published 2024).

Tests used:
[1] = tested on: cancer cells derived from various origins; assay: Cell viability (MTT or crystal violet assay) in cancer cell lines of various origins; type: cell-based, human; settings: various concentrations, 3 days, cancer cells of various origins (FIG. 2)
Text: Human lung cancer cell lines (H1299, H460, A549, H226B, and PC9), breast cancer cell line (MDA-MB-231), liver cancer cell line (Hep3B), kidney cancer cell line (786-0), prostate cancer cell lines (DU145 and PC-3), and mouse lung cancer cell line (Lewis Lung Carcinoma, LLC) were purchased from ATCC (American Type Culture Collection) or obtained from Dr. John V. Heymach of MD Anderson Cancer Center, USA. The human head and neck cancer cell line (UMSCC38) was obtained from Dr. Jeffrey N. Myers (MD Anderson Cancer Center, USA). […]
The cancer cell lines were seeded in a 96-well plate at a density of 2×10^3 cells per well and cultured for 24 hours to allow the cells to attach. The cells were then treated with diluted drugs in media for 3 days and cell viability was assessed using MTT assay or crystal violet (CB) assay. For the MTT assay, MTT solution dissolved in PBS was added to achieve a final concentration of 500 μg/mL and incubated for 2-4 hours, after which the medium was removed and the formed formazan was dissolved in 100% DMSO, followed by measuring the absorbance at 570 nm. For the CB assay, the cultured cells were fixed with 100% methanol, stained with a 0.025% crystal violet solution, dissolved in 1% SDS solution, and the absorbance was measured at 570 nm. […]

H1299 lung cancer cells = assay: Cell viability (MTT assay) in H1299 cells; type: cell-based, human; settings: 100 nM, 3 days, MTT, compared with evodiamine and EV501-EV509 (FIG. 1)
Text: Human lung cancer cell lines (H1299, H460, A549, H226B, and PC9), breast cancer cell line (MDA-MB-231), liver cancer cell line (Hep3B), kidney cancer cell line (786-0), prostate cancer cell lines (DU145 and PC-3), and mouse lung cancer cell line (Lewis Lung Carcinoma, LLC) were purchased from ATCC (American Type Culture Collection) or obtained from Dr. John V. Heymach of MD Anderson Cancer Center, USA. The human head and neck cancer cell line (UMSCC38) was obtained from Dr. Jeffrey N. Myers (MD Anderson Cancer Center, USA). Human colon cancer cell lines (HCT116 and HT-29) and glioblastoma cell line (U87MG) were obtained from Professor Sang Kook Lee (Seoul National University College of Pharmacy). The human kidney cancer cell line (Caki-1), and gastric cancer cell line (SNU-638) were purchased from the Korean Cell Line Bank. The chemotherapy-resistant cells [paclitaxel-resistant H460 cells (H460/PcR), paclitaxel-resistant H226B cells (H226B/PcR), cisplatin-resistant H1299 cells (H1299/CsR), pemetrexed-resistant H1299 cells (H1299/PmR)] and molecularly targeted anticancer therapy-resistant cells [erlotinib-resistant PC9 cells (PC9/ER)] were constructed by treating the respective anti-cancer drugs for more than three months. H1299, H460, H226B, PC9, Hep3B, 786-0, DU145, PC-3, HCT116, HT-29, SNU-638, chemotherapeutic resistant cells, and molecularly targeted anticancer therapy-resistant cells were cultured in RPMI 1640 media containing 10% fetal bovine serum (FBS) and antibiotics at 37° C. under 5% CO2 conditions, while MDA-MB-231, UMSCC38, U87MG, Caki-1 were cultured in DMEM media containing 10% FBS and antibiotics at 37° C. under 5% CO2 conditions. Cells were passaged 1-2 times per week.
(§1) The cancer cell lines were seeded in a 96-well plate at a density of 2×10^3 cells per well and cultured for 24 hours to allow the cells to attach. The cells were then treated with diluted drugs in media for 3 days and cell viability was assessed using MTT assay or crystal violet (CB) assay. For the MTT assay, MTT solution dissolved in PBS was added to achieve a final concentration of 500 μg/mL and incubated for 2-4 hours, after which the medium was removed and the formed formazan was dissolved in 100% DMSO, followed by measuring the absorbance at 570 nm. For the CB assay, the cultured cells were fixed with 100% methanol, stained with a 0.025% crystal violet solution, dissolved in 1% SDS solution, and the absorbance was measured at 570 nm. Cell viability was calculated as the percentage of absorbance change in drug-treated group compared to vehicle (DMSO) treated control group.

lung cancer cells = assay: Anchorage-independent (soft agar) colony formation; type: cell-based; settings: soft agar (FIG. 20)
Procedure: Before the experiment, a 1% agar solution made with low-melting agar was placed in a 24-well plate and hardened at room temperature to create a bottom agar. The cells were diluted with medium to seed 2×10^3 cells per well in a 24-well plate. Then, it was mixed with a 1% agar solution to create a final 0.4% agar solution, which was then solidified at room temperature in the plate containing the bottom agar. Medium containing the drug was added on top of the cells mixed in the agar and cultured for 1-3 weeks at 37° C. in a 5% CO2 condition, after which the formed colonies were stained with an MTT solution of 250-500 μg/mL and counted. The colony formation inhibitory effect of the drug was calculated by expressing the change in colony numbers in the drug-treated group compared to the vehicle (DMSO) treated control group as a percentage.

[2] = tested on: tumors derived from lung cancer patients; assay: Lung cancer patient-derived tumor xenograft growth in NOD/SCID mice; type: in vivo, mouse; settings: 20 mg/kg orally six times a week, vs control group (FIG. 7)
Procedure: (§2) H460 cells (5×10^6 cells/spot) or lung cancer patient-derived tumors were implanted into the flank of 6-week-old NOD/SCID mice, or LLC-Luc cells (5×10^5 cells/spot) were implanted into the flank of 8-week-old C57BL/6 mice to form tumors. When the tumor volume reached 50-100 mm^3, the mice were divided into control and experimental groups (with at least 6 mice assigned to each group), and the control group was administered with vehicle (10% DMSO and 40% PEG400 solution prepared in sterile distilled water), while the experimental group was administered with EV507 (20 mg/kg) six times a week orally. The major and minor axes of the tumor were measured, and the tumor size was measured at least 3-4 times a week, and the body weight was measured at least once a week to evaluate the toxicity of the drug. Also, the survival of C57BL/6 mice implanted with LLC-Luc cells was monitored to determine the survival curve. The tumor volume was calculated as (width)^2× length×0.5.

cancer cell = assay: Cancer cell survival inhibitory activity (crystal violet assay); type: cell-based; settings: crystal violet assay (FIG. 19)
Procedure: as §1

H460 xenograft tumors = assay: H460 xenograft tumor growth in NOD/SCID mice; type: in vivo, mouse; settings: 20 mg/kg orally six times a week, vs control group (FIG. 7)
Procedure: as §2

LLC-Luc tumors = assay: Survival in LLC-Luc transplant allograft (lung metastasis) model; type: in vivo, mouse; settings: C57BL/6 mice, 20 mg/kg orally six times a week (FIG. 8)
Procedure: as §2
Moreover, it is known that in the LLC-Luc transplant allograft model that spontaneously generates pulmonary metastatic cancer, mouse mortality occurs due to the proliferation of transplanted LLC-Luc tumors and the formation of pulmonary metastatic cancer. In this allograft model, EV507 was administered to confirm its inhibitory effect on mouse mortality caused by tumor proliferation.

`C=CCN1c2ccccc2C(=O)N2CCc3c([nH]c4ccc(O)cc34)C21` (stereo not shown) [EV507] was tested, and the “anti-cancer survival inhibition efficacy” value [1] was “concentration-dependent anti-cancer survival inhibition efficacy”, the “inhibition of cancer cell survival (cell viability)” value (H1299 lung cancer cells) was “most excellent efficacy” and the anchorage-independent colony formation (lung cancer cells) was “effectively inhibited”. For the same molecule, the tumor growth [2] was “significantly inhibited”, the “cancer cell survival inhibitory activity” value (cancer cell) was “excellent” and the tumor growth (H460 xenograft tumors) was “significantly inhibited”. The mouse mortality (LLC-Luc tumors) was “significantly reduced”.
